These results are taken from PMC4438233, “Antibacterial effects of Traditional Chinese Medicine monomers against Streptococcus pneumoniae via inhibiting pneumococcal histidine kinase (VicK)” (Frontiers in Microbiology, 2015).

For assay [1], the system named is clinical S. pneumoniae 19A (CMCC31689). As to the kind of experiment: Mouse colonization model, serotype 19A. It counts as in vivo, BALB/c mice. Conditions: 19A. The procedure:
(§1) In colonization models, the mice were intranasally challenged by 20 μL of clinical drug-resistant strains (pneumococcal serotype 19F or 19A, 1.5 × 10^8 CFU). An hour later, the mice were intraperitoneally injected with 100 μL drugs (2 × MIC) alone or in combination with PEN (2 × MIC). These injections were continued thrice a day for 3 d. Nasal wash and lung tissues were obtained to analyze the bacteria load at 24, 48, and 72 h after drug infection. Then 100 μL aliquots of the samples diluted were plated on blood agar plates. The colonies were counted after incubation overnight at 37°C with 5% CO2.

Assay [2] has as its system clinical S. pneumoniae 19F (CMCC31693). As to the kind of experiment: Mouse colonization model, serotype 19F. It counts as in vivo, BALB/c mice. Conditions: 19F. As to the method:
as §1

In assay [3] the test system is Penicillin-resistant S. pneumoniae strains. Briefly: Checkerboard test with penicillin against penicillin-resistant S. pneumoniae. It counts as cell-based, Streptococcus pneumoniae. Conditions: agent alone. The procedure: (§2) Minimum inhibitory concentration (MIC) assays for the antibacterial activities of the compounds were performed according to the standard […] method of the Clinical and Laboratory Standards Institute of America. MIC testing of drug-resistant S. pneumoniae, drug-resistant S. aureus, streptococci and antimicrobial combination was also performed using the same method. Briefly, the drugs were serially diluted 2-fold into eight wells with C+Y medium, yielding final concentrations ranging from […]. Then 10^6 CFU bacteria were added to each well. Inoculated medium containing 1% DMSO served as a bacterial growth control, whereas uninoculated medium served as a sterility control. The plates were incubated at 37°C for 12–16 h. […] The experiment was repeated three times.
(§3) The antimicrobial effects of different combinations of two antimicrobial agents were assayed using the checkerboard test (Bajaksouzian et al., [1997]). Each experiment was repeated thrice. The in vitro interaction between the five drugs with PEN was quantified by the fractional inhibitory concentration (FIC). The FIC index (FICI) was calculated using the following formula:
(§4) (2) FIC=FICA+FICB=[A]/MICA+[B]/MICB
(§5) where [A] and [B] are the concentrations of drugs A and B, respectively; MICA and FICA are the MIC and FIC of drug A for the organism, respectively; and MICB, and FICB are the MIC and FIC of drug B for the organism, respectively. The FIC index obtained was interpreted as follows: =0.5, synergy; FIC > 2.0, antagonism (Gupta and Kohli, [2003]).

The subject of the next assay is S. aureus. Briefly: Checkerboard test with penicillin against S. aureus. It counts as cell-based, Staphylococcus aureus. Particulars: agent alone. The procedure: as §2, §3, §4, §5

Consider `CC1(C)S[C@@H]2[C@H](NC(=O)Cc3ccccc3)C(=O)N2[C@H]1C(=O)O` [Penicillin, penicillin, reference compound], for which the “Mean log CFU at site of infection” value in assay [1] (Lung, 24 h, control 4.85) is listed as 4.8 log CFU; in assay [1] (Lung, 48 h, control 6.12) it was 4.5 log CFU; in assay [1] (Lung, 72 h, control 6.29), 4.89 log CFU; in assay [1] (NW (nasal wash), 24 h, i.p. three times a day for 3 days, control 7.29) it was 6.44 log CFU; in assay [1] (NW, 48 h, control 5.97), 5.88 log CFU; in assay [1] (NW, 72 h, control 6.01) it was 5.34 log CFU. The “Mean log CFU at site of infection” value in assay [2] (Lung, 24 h, control 2.82) is 1 log CFU; in assay [2] (Lung, 48 h, control 7.57), 2.58 log CFU; in assay [2] (Lung, 72 h, control 4.95), 3.22 log CFU; in assay [2] (NW (nasal wash), 24 h, i.p. three times a day for 3 days, control 6.72), 6.21 log CFU; in assay [2] (NW, 48 h, control 6.27), 2.1 log CFU; in assay [2] (NW, 72 h, control 7.09) it was 6.12 log CFU. The “MIC, Alone” value came to 4.4 µg/mL in assay [3] (strain 652336); 7.1 µg/mL in assay [3] (strain 736007); 3.56 µg/mL in assay [3] (strain 8364981); 3.56 µg/mL in assay [3] (strain 12092624); 6682 µg/mL in the assay with S. aureus (MRSA8506305); 3339 µg/mL in the assay on S. aureus (MRSA8548991). Besides, the “MIC, Alone” value in the assay with S. aureus (S. aureus ATCC29213) worked out at 52 µg/mL.
